How the values were obtained:
[1] = system: CFPAC-1 (Human pancreatic cancer cell line); assay: Effect of combination of sulfonamide compound and other antitumor agent (CellTiter-Glo, combination index): CFPAC-1;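 note: cells exposed to both agents together for 3 days, viability read by luminescence, normalized to vehicle-treated control wells, mean of triplicate wells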
Method: Each cell line was seeded at 90 L/well to a 96-well culture plate (Thermo Fisher Scientific, Inc.) according to the above tables. The cell-seeded plate was cultured in an incubator set to 37° C. and 500 CO2. On the day following seeding, varying concentrations of the sulfonamide compound and the other antitumor agent were added in combination to the cells. […] The serial dilutions of each compound, or DW was added at 5μL/well to the plate such that each compound and DW, or the sulfonamide compound and the other antitumor agent were combined. […] The plate after the addition was cultured at 37° C. for 3 days under 5% CO2 conditions.
Three days later, CellTiter-Glo(R) 2.0 Reagent (Promega Corporation) was added at 100 μL/well, and the amount of luminescence was measured using a plate reader EnSpire(R) Multimode Plate Reader (PerkinElmer Co., Ltd.).
An average value from 3 wells was calculated as to each drug condition from the obtained data, and cell survival rate normalized against control wells supplemented with the vehicle (DW) was calculated. A Fa (fractional inhibition) value was calculated by subtracting the cell survival rate from 1.

[2] = target: T1, human RNR (histidine tagged human M1 and human M2 proteins) (Homo sapiens, UniProt P23921); assay: Human RNR inhibition effect (dCDP formation from CDP); type: biochemical; settings: 10 μM CDP, 37° C. for 30 minutes, read-out: RNR inhibitory activity IC50
T1 construct: made in house; host or cells: Escherichia coli
T1 sequence (P23921 1-792): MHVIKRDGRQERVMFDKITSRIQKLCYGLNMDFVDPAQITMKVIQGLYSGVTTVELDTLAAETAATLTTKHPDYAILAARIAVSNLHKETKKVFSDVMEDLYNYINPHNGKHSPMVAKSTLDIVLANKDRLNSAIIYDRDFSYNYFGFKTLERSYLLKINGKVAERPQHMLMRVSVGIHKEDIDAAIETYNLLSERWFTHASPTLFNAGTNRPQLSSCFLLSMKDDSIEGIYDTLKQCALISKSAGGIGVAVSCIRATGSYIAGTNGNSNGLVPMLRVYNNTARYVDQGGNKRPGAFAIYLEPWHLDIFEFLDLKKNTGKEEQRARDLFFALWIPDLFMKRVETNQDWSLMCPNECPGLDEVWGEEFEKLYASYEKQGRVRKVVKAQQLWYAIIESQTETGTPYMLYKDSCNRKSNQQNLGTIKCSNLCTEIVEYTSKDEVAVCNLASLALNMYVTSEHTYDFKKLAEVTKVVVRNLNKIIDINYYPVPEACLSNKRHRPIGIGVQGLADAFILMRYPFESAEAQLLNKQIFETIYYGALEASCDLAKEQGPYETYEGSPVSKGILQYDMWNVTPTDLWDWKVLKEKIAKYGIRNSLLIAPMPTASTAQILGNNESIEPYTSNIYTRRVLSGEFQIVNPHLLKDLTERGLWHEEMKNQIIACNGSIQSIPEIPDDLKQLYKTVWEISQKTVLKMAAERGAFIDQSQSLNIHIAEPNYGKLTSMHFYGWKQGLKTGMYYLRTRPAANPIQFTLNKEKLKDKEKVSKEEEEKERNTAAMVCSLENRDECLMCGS
In short: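 His-tagged human M1 (isoform 1) and N-terminal 59-aa-truncated M2 (isoform 2), E. coli-expressed, Ni-purified, preincubated 20 min with compound (1% DMSO). Reaction with 10 μM CDP, 2 mM ATP, 0.24 mM NADPH, 6 mM DTT, 4 mM Mg acetate, 100 mM KCl, 50 mM HEPES pH 7.2, 30 min at 37° C. dCDP formed quantified by reverse-phase HPLC after heat stop.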

[3] = Example Compound 1 225 nM + Prexasertib 1.89 nM, molar ratio 1:0.008406
[4] = Example Compound 1 338 nM + AZD6738 925 nM, molar ratio 1:2.738
[5] = Example Compound 1 338 nM + Prexasertib 2.84 nM, molar ratio 1:0.008406
[6] = Example Compound 1 338 nM + SCH900776 253 nM, molar ratio 1:0.7487
[7] = Example Compound 1 507 nM + AZD6738 1390 nM, molar ratio 1:2.738
[8] = Example Compound 1 507 nM + Prexasertib 4.26 nM, molar ratio 1:0.008406
[9] = Example Compound 1 507 nM + SCH900776 380 nM, molar ratio 1:0.7487
[10] = Example Compound 1 760 nM + AZD6738 2080 nM, molar ratio 1:2.738
[11] = Example Compound 1 760 nM + Gemcitabine 5.28 nM, molar ratio 1:0.006950
[12] = Example Compound 1 760 nM + SCH900776 569 nM, molar ratio 1:0.7487

IC50 [2]: 60 nM
SMILES: Cc1ccc(F)c([C@@H](C)[C@H](NS(=O)(=O)c2ccc(Br)cc2C(N)=O)c2n[nH]c(=O)o2)c1C [Example 1, 5-bromo-2-(N-((1 S,2R)-2-(6-fluoro-2,3-dimethylphenyl)-1-(5-oxo-4,5-dihydro-1,3,4-oxadiazol-2-yl)propyl)sulfamoyl)benzamide]
CI value [1, 3]: 0.825
Fa value [1, 3]: 0.2319
CI value [1, 4]: 0.484
Fa value [1, 4]: 0.4791
CI value [1, 5]: 0.580
Fa value [1, 5]: 0.6056
CI value [1, 6]: 0.496
Fa value [1, 6]: 0.4162
CI value [1, 7]: 0.356
Fa value [1, 7]: 0.7266
CI value [1, 8]: 0.633
Fa value [1, 8]: 0.7542
CI value [1, 9]: 0.369
Fa value [1, 9]: 0.6944
CI value [1, 10]: 0.427
Fa value [1, 10]: 0.7884
CI value [1, 11]: 0.790
Fa value [1, 11]: 0.6416
CI value [1, 12]: 0.472
Fa value [1, 12]: 0.7479
